pEC50, pIC50, pKi: −log10 of the molar value. Like-named read-outs stand apart in the source and are kept apart here.
Assays:
BaF3 parental cells = test: In vitro cell proliferation, BaF3 parental line + IL3 (CellTiter-Glo); format: cell-based, murine
BaF3 PIM1 cells [1] = details: read-out: Prolif BaF3_PIM1 (IC50), incubated overnight
Procedure: (§1) BaF3 parental line was obtained from the DSMZ repository. BaF3 lines transfected with PIM 1 or PIM2 were generated. Mouse IL-3 was purchased from R&D Systems. G418 was purchased from Clontech. Media for BaF3 parental line contained RPMI, 10% FBS, 2 mM L-Glutamine, 2 ng/mL mIL-3. Media for BaF3 PIM1 & 2 lines contained RPMI, 10% FBS, 2 mM L-Glutamine, 250 μg/mL.
(§2) BaF3, a murine interleukin-3 dependent pro-B cell line, parental cells, BaF3 PIM1 cells, BaF3 PIM2 cells, and MM1.S (multiple myeloma) cells were seeded at 2 k/well, 5 k/well, 5 k/well, and 10 k/well respectively, in a 384-well plate, at 45 μL/well. Test compound was added at 5 μL/well. BaF3 cells (parental and transfected) were incubated overnight, while MM1.S cells were incubated for 72 hours at 37° C., 5% CO2. CELL TITER GLO® Reagent (Promega) was added at 50 μL/well, the plates were incubated for 30 minutes, and their luminescence read on an HT Analyst. IC50/EC50 values for the test compound were calculated.

PIM1 = PIM1 (Homo sapiens (Human), UniProt P11309); test: Pim kinase inhibition, PIM1 LC3K (Example 901); format: biochemical
Source text: Determination of the Pim kinase activity of a Formula I compound is possible by a number of direct and indirect detection methods.

[2] = system: MM1.S (multiple myeloma) cells; test: In vitro cell proliferation, MM1.S multiple myeloma cells (CellTiter-Glo, ATP); format: cell-based; details: read-out: Prolif MM1S ATP (EC50)
Outline: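 BaF3 parental cells (medium with 2 ng/mL mIL-3) seeded at 2 k/well and MM1.S at 10 k/well, then exposed to test compound at 37° C, 5% CO2: BaF3 overnight, MM1.S for 72 hours. Viability read by CellTiter-Glo; IC50/EC50 values calculated.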

BaF3 PIM1 cells [3] = test: cells; details: Mus musculus
Procedure: as §1, §2

[4] = Mus musculus, BaF3, BaF3 parental cells with IL-3, incubated overnight, read-out: Prolif BaF3 + IL3 (IC50)
[5] = Mus musculus, BaF3, BaF3 parental cells with IL-3, incubated overnight, read-out: Prolif BaF3 IL3 (IC50)
[6] = BaF3, read-out: Prolif BaF3 PIM1 (IC50), BaF3 PIM1 cells, incubated overnight
[7] = BaF3, read-out: Prolif BaF3_PIM1 (IC50), BaF3 PIM1 cells, incubated overnight

Chain of PIM1 (P11309 whole entry): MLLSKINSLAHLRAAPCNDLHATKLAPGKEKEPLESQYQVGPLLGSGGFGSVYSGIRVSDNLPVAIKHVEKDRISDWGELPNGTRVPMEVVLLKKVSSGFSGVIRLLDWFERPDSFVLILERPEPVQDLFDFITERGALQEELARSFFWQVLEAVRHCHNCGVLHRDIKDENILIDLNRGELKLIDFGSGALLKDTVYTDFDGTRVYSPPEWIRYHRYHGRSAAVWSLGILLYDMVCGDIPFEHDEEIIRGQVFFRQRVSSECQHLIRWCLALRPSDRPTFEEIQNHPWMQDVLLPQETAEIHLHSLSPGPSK

Row | Structure (SMILES) | pIC50 (BaF3 PIM1 cells [1]) | pKi (PIM1) | pEC50 ([2]; 72 hours) | pIC50 (BaF3 PIM1 cells [3]; [6]) | pEC50 ([2]; Homo sapiens, MM1.S, 72 h) | pIC50 (BaF3 PIM1 cells [3]; [7]) | pIC50 (BaF3 parental cells; [4]) | pIC50 (BaF3 parental cells; BaF3 parental cells with IL-3, incubated overnight, read-out: Prolif BaF3 + IL3 (IC50)) | pIC50 (BaF3 parental cells; [5])
1 | CCn1ncc(NC(=O)c2nc(-c3c(F)cccc3F)sc2N)c1N1CCC(N)C(OC)CC1 (single isomer, unassigned) [Example 406, 5-amino-N-[5-(4-amino-5-methoxy-azepan-1-yl)-1-ethyl-pyrazol-4-yl]-2-(2,6-difluorophenyl)thiazole-4-carboxamide] | 6.55 | 9.88 | 6.39 | – | – | – | 4.92 | – | –
2 | CCn1ncc(NC(=O)c2nc(-c3c(F)cccc3F)sc2N)c1N1CCC(N)C(OC)CC1 (single isomer, unassigned) [Example 407, 5-amino-N-[5-(4-amino-5-methoxy-azepan-1-yl)-1-ethyl-pyrazol-4-yl]-2-(2,6-difluorophenyl)thiazole-4-carboxamide] | 6.10 | 9.69 | 5.46 | – | – | – | – | 5.01 | –
3 | Cc1ccc(F)c(-c2nc(C(=O)Nc3cnn(C4CC4)c3N3CCC(N)C(F)CC3)c(N)s2)c1 (centres unmarked) [Example 329, 5-amino-N-[5-(4-amino-5-fluoro-azepan-1-yl)-1-cyclopropyl-pyrazol-4-yl]-2-(2-fluoro-5-methyl-phenyl)thiazole-4-carboxamide] | – | 9.61 | – | – | 5.55 | 5.89 | 5.34 | – | –
4 | Cn1ncc(NC(=O)c2nc(-c3c(F)cncc3F)sc2N)c1N1CC[C@H](N)[C@@H](F)CC1 (racemic) [Example 439, 5-amino-N-(5-((4S,5S)-4-amino-5-fluoroazepan-1-yl)-1-methyl-1H-pyrazol-4-yl)-2-(3,5-difluoropyridin-4-yl)thiazole-4-carboxamide] | – | 9.92 | – | – | 5.41 | 7.41 | 4.79 | – | –
5 | CN[C@@H]1CCCN(c2c(NC(=O)c3nc(-c4cc(C)ccc4F)sc3N)cnn2CC(F)F)CC1 [Example 109, (R)-5-Amino-N-(1-(2,2-difluoroethyl)-5-(4-(methylamino)azepan-1-yl)-1H-pyrazol-4-yl)-2-(2-fluoro-5-methylphenyl)thiazole-4-carboxamide] | – | 10.01 | – | 6.11 | 5.41 | – | – | – | 5.29
6 | COc1ncccc1-c1nc(C(=O)Nc2cnn(C)c2N2CCC[C@H](N)CC2)c(N)s1 [Example 418, 5-amino-N-[5-[(4S)-4-aminoazepan-1-yl]-1-methyl-pyrazol-4-yl]-2-(2-methoxy-3-pyridyl)thiazole-4-carboxamide] | – | 8.97 | – | – | 5.15 | 5.85 | < 4.60 | – | –

Stronger by pKi (PIM1), values ahead:

Row | pIC50 (BaF3 PIM1 cells [1]) | pKi (PIM1) | pEC50 ([2]; 72 hours) | pIC50 (BaF3 PIM1 cells [3]; [6]) | pEC50 ([2]; Homo sapiens, MM1.S, 72 h) | pIC50 (BaF3 PIM1 cells [3]; [7]) | Structure (SMILES) | pIC50 (BaF3 parental cells; [4]) | pIC50 (BaF3 parental cells; BaF3 parental cells with IL-3, incubated overnight, read-out: Prolif BaF3 + IL3 (IC50)) | pIC50 (BaF3 parental cells; [5])
7 | – | 11.00 | – | 7.20 | 6.91 | – | Cc1ccc(F)c(-c2nc(C(=O)Nc3cnn(C)c3N3CCC[C@@H](N)CC3)c(N)s2)c1F [Example 116, (R)-5-amino-N-(5-(4-aminoazepan-1-yl)-1-methyl-1H-pyrazol-4-yl)-2-(2,6-difluoro-3-methylphenyl)thiazole-4-carboxamide] | – | – | 5.09
8 | – | 11.00 | – | – | 5.92 | 7.08 | Nc1sc(-c2c(F)cccc2F)nc1C(=O)Nc1cnn(C2CC2)c1N1CC[C@H](N)CC(F)(F)C1 [Example 344, 5-amino-N-[5-[(5S)-5-amino-3,3-difluoro-azepan-1-yl]-1-cyclopropyl-pyrazol-4-yl]-2-(2,6-difluorophenyl)thiazole-4-carboxamide] | 5.28 | – | –
9 | – | 10.07 | – | – | 5.25 | 7.19 | Cn1ncc(NC(=O)c2nc(-c3c(F)cncc3F)sc2N)c1N1CC[C@H](N)[C@@H](F)CC1 (stereo in doubt) [Example 472, 5-amino-N-[5-[(4S,5S)-4-amino-5-fluoro-azepan-1-yl]-1-methyl-pyrazol-4-yl]-2-(3,5-difluoro-4-pyridyl)thiazole-4-carboxamide] | 4.73 | – | –
10 | – | 10.74 | – | – | 6.97 | 7.23 | Cc1c(-c2nc(C(=O)Nc3cnn(C)c3N3CC[C@@H](N)CC(F)(F)C3)c(N)s2)cnn1C [Example 463, 5-amino-N-[5-[(5R)-5-amino-3,3-difluoro-azepan-1-yl]-1-methyl-pyrazol-4-yl]-2-(1,5-dimethylpyrazol-4-yl)thiazole-4-carboxamide] | < 4.60 | – | –
11 | – | 10.64 | – | – | 5.43 | 8.66 | Cn1ncc(NC(=O)c2nc(-c3c(F)cncc3F)sc2N)c1N1CC[C@H](N)CC(F)(F)C1 (single isomer, unassigned) [Example 454] | 4.75 | – | –
